The test system of this assay is oseltamivir-resistant influenza A/Hong Kong/2369/2009 (H1N1pdm) H275Y. On the set-up: species or system BALB/c mice. Particulars: mouse, in vivo.

Regarding `CCOC(=O)C1=C[C@@H](OC(CC)CC)[C@H](NC(C)=O)[C@@H](N)C1` [oseltamivir], the “protection from weight loss (mean body weights)” value was “did not protect mice from weight loss”.

Values taken from patent publication US20250320279A1, “UNGULATE-DERIVED POLYCLONAL IMMUNOGLOBULIN SPECIFIC FOR INFLUENZA VIRUS AND USES THEREOF” (priority 2021, published 2025).
